Experimental data from patent publication US20250145946A1, “GENERATION OF PURE RETINAL CELLS FROM HUMAN PLURIPOTENT STEM CELLS” (Wisconsin Alumni Research Foundation, priority 2023, published 2025).

Key:
[1] = tested on: H9 human embryonic stem cells (hESCs); test: qPCR analysis of neural and retinal gene expression during hPSC neural/retina differentiation; format: cell-based
Method: hPSCs (H9, IMR-90-4 and WC30) were maintained under E8/feeder-free culture condition and passaged at 1:20 ratio with Rock inhibitor. After each new passage, the cells were fed with E8 medium for another 1˜2 days to reach 30-40% confluence. To initiate retina differentiation, culture medium was replaced with Retina Induction Medium (RIM) containing Neural induction medium (NIM) comprising DMEM/F12 media containing 1% N2 and 1× nonessential amino acids (NEAA) supplemented with 10 μM SB431542 (TGF inhibitor, Stemgent, 04-0010-10); this new passage day was counted as day 0 (DO) of retina differentiation. Cells were then fed daily with RIM, or every other day based on the cell density. On day 4, the cells were dissociated by ReLeSR (STEM CELL) or EDTA and re-suspended in the fresh RIM containing 0.5 micromolar (μM) Rock inhibitor. Cell clusters were thereafter transferred to a cell culture flask and cultured in suspension. On day 5, the resulting cell spheres were fed with RIM without SB431542. […] At day 20, the spheres were cultured in Transition medium (DMEM/F12: Neurobasal (1:1) with 1% N2, 2% B27, 1×NEAA and 1×Glutamax) until analysis.
Total RNA was isolated with the RNeasy Plus Mini Kit according to the manufacturer's instructions. For quantitative PCR (qPCR), cDNA was synthesized using PrimeScript RT Reagent Kit (Takara). qPCR was performed using iTaq Universal SYBR Green Supermix (Bio-Rad). GAPDH gene was used as an internal control to equalize cDNA.
H9 human embryonic stem cells (hESCs) were differentiated to neuroepithelia by culture in chemically defined media as disclosed above and then treated with inhibitors against BMP (DMH1), TGF-beta (SB-431542, SB), or WNT (IWR1) pathways separately for 6 days during the neural induction process (FIG. 2a).
Because SOX1 expression was known to be absent in retinal progenitors (also shown in FIG. 7a), expression of SOX2 and SOX1 presented a simple determining marker for cortical vs. retinal progenitors.

hPSCs = test: Single nucleus RNA-seq (snRNA-Seq) profiling of differentiating cells; format: cell-based, human; conditions: day 12
Method: Differentiating cells at multiple time points (day 0-day 12) indicated below were digested and collected for nucleus isolation and library construction (Tao et al., 2024, Nat. Biotech. 12:1404-1416; https://doi.org/10.1038/s41587-023-01977-4). All libraries prepared in this way were processed by NovaSeq. Alignment of raw sequencing reads, and generation of feature barcode matrices were performed using Cellranger (7.1.0). Seurat (4.1.3) was used to process feature barcode matrices and analyze snRNA-Seq data32. All samples were processed under standard quality control metrics. Single cells with more than 300 unique genes (nFeature) and less than 15% or 20% mitochondrial gene reads (percent.mt) were selected for follow-up analysis. Additional procedures were used to exclude low quality cells and doublets in each sample (nFeature<6,000 and nCount<20,000). […] After quality control, all snRNA-Seq data were normalized using the SCTransform (v2) function in Seurat with mitochondria genes regressed out (Choudhary, S. et al., 2022, Genome Biol 23, 27). PCA and UMAP reduction, gene feature plots were done by using Seurat as well.
Single nucleus RNA-seq (snRNA-Seq) assays were performed to profile and compare the differentiating cells under the SB or SB+DMH1 conditions (FIG. 2d). On day 6, after filtering low quality and dead cells, 8,533 and 9,756 cells in the SB and SB+DMH1 groups were collected, respectively. Uniform manifold approximation and projection (UMAP) clustering identified 11 clusters in both conditions (FIG. 2e).
To verify this observation, cells were differentiated with only SB for the first 6 days to generate primitive neuroepithelial cells and then how the BMP pathway regulated retinal differentiation was investigated by treating the cells with or without DMH1 at day 6 (FIG. 2d). Cell nuclei were collected on day 12 for snRNA-Seq to compare differentiating cells in the control (medium without inhibitors) and under DMH1 conditions. […] UMAP clustering identified 13 clusters (FIGS. 2h-2j, FIG. 10a).

[2] = tested on: H9 human embryonic stem cells (hESCs); test: Flow cytometry of differentiating cells for SOX2, SOX1 and PAX6; format: cell-based; conditions: day 12; FIG. 8a
Method: Flow cytometry was performed following manufacturer's instruction using Transcription Factor Buffer Set which is designed for transcription factor staining. Briefly, single cells were prepared using TrypLE Express Enzyme and fixed in the fixation buffer provided in the kit at 2-8° C. for 45 min. After 3 washings with the permeable buffer, the primary antibodies were added to cells for 45 min at 2-8° C. in a light-tight box. The cells were washed 3 times before incubation with fluorescently conjugated secondary antibodies for 45 mins at 2-8° C. in a light-tight box. After 3 times of washing, cells were suspended in the washing buffer and analyzed by flow cytometry (BD LSR or BD LSRII). Data analysis was performed using FlowJo. Antibodies used were: SOX2 (R&D Systems AF2018), SOX1 (R&D Systems AF3369), PAX6 Alexa Fluor 488 (BD Biosciences Cat #561664), SOX2-V450 (BD Biosciences Cat #561610), SOX1-PE (BD Biosciences Cat #561592), PAX6 (Covance Cat #PRB-278P), VSX2 (Exalpha, Cat #X1180P), CRX (Abnova, Cat #H00001406-M02), OPSIN (MilliporeSigma, Cat #AB5407). Due to the lack of retinal differentiation resulting from BMP inhibition, expression of retina genes was examined at multiple time points in SB and SB plus dorsomorphin homolog 1 (SB+DMH1), which was a well-established dual-SMAD inhibition condition for neural conversion (Chambers, S. M. et al., 2009, Nat Biotechnol 27:275-280). […]

[3] = inhibitor for 6 days during neural induction, qPCR, FIG. 2b
[4] = SB day 0-5, then DMH1 from day 6, vs control
[5] = inhibitor for 6 days during neural induction, vs control, qPCR, FIG. 2b

For O=C(Nc1cccc2cccnc12)c1ccc(N2C(=O)[C@@H]3[C@H](C2=O)[C@@H]2C=C[C@H]3C2)cc1 [IWR1], which “effect on retinal differentiation” value [1, 3] is on record?
Its value is “did not have much effect”.

CC(C)Oc1ccc(-c2cnc3c(-c4ccnc5ccccc45)cnn3c2)cc1 [DMH1] was tested. Which GLI3 expression (hPSCs; [4]) did it give?
Its GLI3 expression is “downregulated”.

And the “MKI67 and NES expression levels in progenitor clusters” value (hPSCs; [4])?
Its value is “much lower”.

And the “expression of EFTFs PAX6, LHX2, SIX3 and OTX2” value (hPSCs; [4])?
Its value is “much lower or even absent”.

And the “expression of BMP target genes ID1/2/4” value (hPSCs; SB day 0-5, then DMH1 from day 6, FIG. 10b)?
Its value is “much lower levels”.

What about the “expression of neural genes including PAX6 and SOX1” value [1, 5] of the same compound?
The value was “efficiently induced”.

What about the “expression of retinal lineage-specific markers RAX and VSX2” value [1, 5] of the same compound?
The value was “did not show much change”.

How did the “expression of retinal lineage-specific markers RAX and VSX2” value [1, 5] turn out when NC(=O)c1ccc(-c2nc(-c3ccc4c(c3)OCO4)c(-c3ccccn3)[nH]2)cc1 [SB] was run?
Its value is “highest expression level”.

And the “expression of SOX1 (definitive neuroepithelial marker)” value [1, 3]?
The value was “low expression”.

What about the “expression pattern of SOX1 over time” value ([1]; time course after day 6, SB condition vs BMP2 administration, FIG. 3c) of the same compound?
The value was “increased steadily”.

And the “SOX1 and SOX2 double positive cells (definitive neuroepithelial cells)” value [2]?
The value was 14%.
